{"source": "paper PMC13385394", "about": "“Cryo-EM Structure of the TRPC1/5 Heteromer Enables Design of Antidepressant and Anxiolytic Drug with Reduced Side Effects” (Nature Communications, 2026)", "key": {"[1]": {"system": "lateral amygdala (LA) neurons", "assay": "Current-clamp recordings in acute brain slices, CCK-4-induced hyperexcitability", "assay_type": "cell-based, mouse", "settings": "ex vivo brain slices", "quoted_text": "Coronal brain slices (300 μm) were prepared from male C57BL/6 J mice (8–10 weeks, Jinan Pengyue Laboratory Animal Breeding Co., Ltd., Jinan, China) and initially incubated in ACSF-1.5 at 32 for 30 min, followed by an additional 1 h at room temperature. Subsequently, slices were transferred to oxygenated artificial cerebrospinal fluid (ACSF) containing the test compound and incubated for 2–3 h before being placed in a recording chamber perfused with ACSF-1.5.\nElectrophysiological recordings were performed under an Olympus microscope equipped with a 40× long-working-distance objective. Recording electrodes (3-4 MΩ) were pulled from borosilicate glass capillaries. […] After achieving a gigaseal in voltage-clamp mode at −70 mV and establishing whole-cell configuration with series resistance compensation, recordings were switched to current-clamp mode. Step currents ranging from −60 pA to 300 pA (Δ = 20 pA, 500 ms duration, 3 s interval) were applied to evoke action potentials. […] Intracellular solution (mM): 140 K-gluconate, 2 MgCl₂, 8 KCl, 10 HEPES, 2 Na₂-ATP, 0.2 Na₂-GTP; pH adjusted to 7.2 with KOH.\n(d) Quantification of action potential\nData are presented as mean ± SEM (n = 11 neurons"}, "[2]": {"system": "CUMS-induced depressive-like behaviors", "assay": "Forced swim test (FST) in CUMS model", "assay_type": "in vivo, mouse", "settings": "CUMS mice; 14 days once-daily oral; vs vehicle", "experimental": "The stressors included food and water deprivation, foot shock, wet bedding, cage tilting, restraint, shaking, and olfactory stimulation. These seven stressors were randomly applied each week to ensure unpredictability. The stress induction was maintained continuously for 28 days. Following model establishment, the tail suspension test (TST) was performed to confirm the successful induction of depressive-like behaviors. Mice that met the criteria were randomly assigned to experimental groups. Chronic Treatment: Mice were treated daily for 14 consecutive days. The SPT was conducted on day 11, and the forced swimming test (FST) was performed on day 14."}, "TRPC1/5 heteromers": {"biological_target": "T1, TRPC1/5 heteromers (Homo sapiens, UniProt P48995+Q9UL62)", "T1 construct": "wild type plasmids full-length hTRPC1 (WT) and full-length hTRPC5 (WT); expressed in transfected cells; host or cells: HEK293T", "T1 sequence (P48995 whole entry, the tested form may be a part)": "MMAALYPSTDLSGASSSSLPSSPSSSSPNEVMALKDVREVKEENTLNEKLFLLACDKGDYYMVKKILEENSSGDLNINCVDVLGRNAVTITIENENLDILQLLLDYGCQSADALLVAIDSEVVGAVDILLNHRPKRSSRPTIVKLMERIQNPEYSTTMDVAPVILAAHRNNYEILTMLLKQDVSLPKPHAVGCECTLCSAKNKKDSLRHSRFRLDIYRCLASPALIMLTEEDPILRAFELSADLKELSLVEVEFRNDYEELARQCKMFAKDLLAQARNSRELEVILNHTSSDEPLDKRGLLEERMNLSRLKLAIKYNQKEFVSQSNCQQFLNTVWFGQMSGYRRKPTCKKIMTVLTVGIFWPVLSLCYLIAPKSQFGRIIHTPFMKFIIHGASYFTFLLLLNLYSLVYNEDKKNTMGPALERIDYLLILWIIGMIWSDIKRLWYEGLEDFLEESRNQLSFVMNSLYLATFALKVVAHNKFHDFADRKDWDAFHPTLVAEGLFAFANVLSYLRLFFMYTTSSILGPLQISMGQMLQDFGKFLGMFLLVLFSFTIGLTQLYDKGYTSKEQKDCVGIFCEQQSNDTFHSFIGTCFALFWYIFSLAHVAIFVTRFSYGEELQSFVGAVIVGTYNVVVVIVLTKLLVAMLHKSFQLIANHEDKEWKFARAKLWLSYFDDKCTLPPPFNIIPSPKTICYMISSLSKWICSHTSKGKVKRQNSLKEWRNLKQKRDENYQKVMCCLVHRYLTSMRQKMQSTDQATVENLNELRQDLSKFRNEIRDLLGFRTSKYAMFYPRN", "T1 sequence (Q9UL62 whole entry, the tested form may be a part)": "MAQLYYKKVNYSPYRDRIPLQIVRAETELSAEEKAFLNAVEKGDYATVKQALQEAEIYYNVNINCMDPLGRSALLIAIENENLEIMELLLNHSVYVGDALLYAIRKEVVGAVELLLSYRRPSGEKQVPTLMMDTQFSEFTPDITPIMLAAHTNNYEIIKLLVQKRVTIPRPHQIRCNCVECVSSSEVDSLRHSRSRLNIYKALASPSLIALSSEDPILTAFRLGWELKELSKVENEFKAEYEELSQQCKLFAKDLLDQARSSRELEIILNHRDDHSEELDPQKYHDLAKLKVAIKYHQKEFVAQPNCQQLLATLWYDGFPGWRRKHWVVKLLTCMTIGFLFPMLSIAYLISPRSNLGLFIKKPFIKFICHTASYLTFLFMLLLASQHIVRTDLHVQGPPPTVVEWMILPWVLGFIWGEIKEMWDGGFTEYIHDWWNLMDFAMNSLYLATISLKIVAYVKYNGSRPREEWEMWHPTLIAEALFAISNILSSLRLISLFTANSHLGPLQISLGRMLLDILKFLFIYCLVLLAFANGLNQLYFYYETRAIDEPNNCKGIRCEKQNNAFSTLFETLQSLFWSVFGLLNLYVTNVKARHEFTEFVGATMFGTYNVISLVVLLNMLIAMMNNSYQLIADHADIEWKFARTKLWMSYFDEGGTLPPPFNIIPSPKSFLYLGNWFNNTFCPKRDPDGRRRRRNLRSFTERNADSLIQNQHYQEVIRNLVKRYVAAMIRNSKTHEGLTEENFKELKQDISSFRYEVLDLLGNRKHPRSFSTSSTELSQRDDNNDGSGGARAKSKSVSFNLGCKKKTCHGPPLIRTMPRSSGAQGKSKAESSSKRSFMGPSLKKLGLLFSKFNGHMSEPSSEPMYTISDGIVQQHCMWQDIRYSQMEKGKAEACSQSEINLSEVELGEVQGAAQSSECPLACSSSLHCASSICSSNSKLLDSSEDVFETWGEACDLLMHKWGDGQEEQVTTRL", "assay": "Whole-cell patch-clamp, inhibition of EA-activated TRPC1/5 heteromers", "assay_type": "cell-based", "from_the_text": "The full-length hTRPC5 or truncated mTRPC5, and the full-length hTRPC1 constructs was respectively co-transfected in a plasmid ration 1:3 (w/w) into HEK293T cells (from the ATCC). As previously described, a mCherry was inserted into TRPC5 constructs and a GFP was inserted at the C terminus of TRPC1. Therefore, Cells with red and green fluorescence were selected for whole-cell patch recordings (HEKA EPC10 amplifier, […] software (https://www.heka.com/downloads/downloads_main.html#down_patchmaster)). A 1-s ramp protocol from −100 to +100 mV was applied at a frequency of 0.2 Hz. Signals were sampled at 50 kHz and filtered at 2.9 kHz. The pipette solution contained 130 mM CsCl, 1 mM MgCl2, 5.7 mM CaCl2, 10 mM EGTA, and 10 mM Hepes (calculated free Ca^2+, 200 nM), and the pH was titrated to 7.2 using CsOH[40]. The standard bath solution contained 140 mM NaCl, 5 mM KCl, 1 mM MgCl2, 2 mM CaCl2, 10 mM Hepes, and 10 mM D-glucose, and the pH was adjusted to 7.4 with NaOH (1 M). The recording chamber (150 μL) was perfused at a rate of ~2 mL/min. All recordings were performed at room temperature."}, "TRPC6 homomer": {"biological_target": "T2, TRPC6 homomer (Homo sapiens, UniProt Q9Y210)", "T2 construct": "expressed in transfected cells", "T2 sequence (Q9Y210 1-931)": "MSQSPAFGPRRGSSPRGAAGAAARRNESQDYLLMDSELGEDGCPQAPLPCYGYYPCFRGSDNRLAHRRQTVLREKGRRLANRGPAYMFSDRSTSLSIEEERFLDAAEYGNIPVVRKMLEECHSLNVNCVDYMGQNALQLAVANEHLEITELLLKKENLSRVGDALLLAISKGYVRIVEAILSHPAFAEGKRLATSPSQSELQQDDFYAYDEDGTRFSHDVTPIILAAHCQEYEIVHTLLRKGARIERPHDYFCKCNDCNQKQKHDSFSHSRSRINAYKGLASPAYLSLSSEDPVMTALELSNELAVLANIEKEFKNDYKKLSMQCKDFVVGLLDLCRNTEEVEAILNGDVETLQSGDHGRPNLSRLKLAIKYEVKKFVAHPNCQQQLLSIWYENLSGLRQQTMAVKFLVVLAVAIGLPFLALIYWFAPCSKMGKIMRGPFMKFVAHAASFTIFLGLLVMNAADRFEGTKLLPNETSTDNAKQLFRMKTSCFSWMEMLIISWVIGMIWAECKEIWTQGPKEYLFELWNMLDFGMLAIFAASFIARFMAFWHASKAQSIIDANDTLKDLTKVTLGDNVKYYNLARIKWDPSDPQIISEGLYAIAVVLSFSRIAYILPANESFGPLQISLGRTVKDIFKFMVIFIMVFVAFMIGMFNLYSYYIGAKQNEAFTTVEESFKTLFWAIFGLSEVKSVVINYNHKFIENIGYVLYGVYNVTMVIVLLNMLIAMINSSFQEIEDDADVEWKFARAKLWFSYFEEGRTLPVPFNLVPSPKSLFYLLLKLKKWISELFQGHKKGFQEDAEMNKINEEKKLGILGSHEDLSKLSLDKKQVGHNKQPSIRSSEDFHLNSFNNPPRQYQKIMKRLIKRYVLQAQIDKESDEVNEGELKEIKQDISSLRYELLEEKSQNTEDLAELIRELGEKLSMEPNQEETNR", "assay": "Whole-cell patch-clamp, inhibition of TRPC6 homomer", "assay_type": "cell-based", "from_the_text": "Error bars represent the standard error of the mean (SEM, n = 6 independent\nError bars represent the standard error of the\n110 mean (SEM, n = 5 independent cells)."}}, "note": "Several values for one entry are separate records, joined by “and”; a condition that tells them apart may be missing. Equal values may be shown once.", "data": [{"smiles": "CN(C)CCCCn1c(=O)c2c(nc(Oc3cccc(Cl)c3)n2Cc2ccc(Cl)cc2)n(C)c1=O", "note": "[H08]", "values": [{"measurement": "effect on CCK-4-induced hyperexcitability of lateral amygdala neurons (in words)", "setting": "[1]", "result": "selectively suppresses CCK-4-induced hyperexcitability"}, {"measurement": "immobility (FST), repeated dosing", "setting": "[2]", "result": "reduced immobility"}, {"measurement": "Hill coefficient, TRPC1/C5 heteromer", "setting": "TRPC1/5 heteromers; combined fitting with additional 0.01 nM and 0.001 nM points (rebuttal)", "result": "approximately 0.33"}, {"measurement": "IC50", "setting": "TRPC1/5 heteromers; whole-cell patch-clamp, read-out: IC50, TRPC1/C5", "result": "0.239 nM and 0.2 nM"}, {"measurement": "IC50", "setting": "TRPC6 homomer", "result": "> 10000", "unit": "nM"}, {"measurement": "inhibition at 10 µM", "setting": "TRPC6 homomer; 10 μM", "result": "30 to 40", "unit": "%"}, {"measurement": "inhibition of TRPC6", "setting": "TRPC6 homomer; 10 μM", "result": "no more than 40%"}]}]}
